Data: patent publication US4895867A, “2-(5-phenyl-2-furanyl)imidazoles useful as cardiotonic agents” (Norwich Eaton Pharmaceuticals, Inc., priority 1988, dated 1990)
Where a name gives a salt, the structure may show the parent alone.

tested on: guinea pig atrial muscle; test: In vitro guinea pig atrial muscle contractile force measurement (Test Method I); assay type: cell-based; conditions: Cavia porcellus; calculated concentration required to increase the contractile force by 50% from the control level; isolated left atria, 30° C., mean of at least three tissues
Excerpt: Kaplan, "Strategy for the Discovery and Development of a Positive Inotropic Agent", Pharmacology and Therapeutics, Vol. 16 (1982), pp. 303-330. This test measures the effects of such compounds on the contractility of cardiac tissue excised from the atrial muscle of a guinea pig. In vitro guinea pig atrial muscle contractile force measurement Unfasted male Hartley albino guinea pigs, weighing 450-650 g (Charles River Breeding Laboratories, Inc., Wilmington, MA) were used in these studies. They were killed by cranial concussion at the beginning of the experiment. The heart was quickly removed into a Petri dish filled with a solution of the following composition (in water): NaCl 99.0 mM; Dextrose 11.0 mM; […]; MgSO4 1.2 mM; NaH2 PO4 1.3 mM; CaCl2.2H2 O 2.5 mM; NaHCO3 25.01 mM; bubbled with 95% 02 :5% CO2 at room temperature. A triple O silk ligature was tied to the edge of the left atrial appendage, using an intestinal needle. The appendage was cut off; a section was cut away from the wall which faced the heart, retaining a sheet of tissue from the outer face of the atrium. The tissue was mounted from a pair of point stimulating electrode hooks with 1 gram of tension in an organ bath maintained at 30° C. The ligature was tied to a Grass FT-103 force-displacement transducer, and responses were measured in grams of developed tension with a Grass Model 7 polygraph (Grass Instrument Co., Quincy, MA). The left atria were stimulated electrically with the following square wave parameters: 3 v; 4 msec 1 Hz, as soon as they were put into the baths. After a short time (3-5 minutes), voltage was increased until stable responses were obtained (10-25% above threshold). The tissues were allowed to equilibrate under such stimulation for at least 1 hour before experimentation. The test compounds were dissolved in water, if water soluble, or if not, in tetrahydrofurfuryl alcohol (Eastman D5C) or in an organic vehicle containing 90% polyethylene glycol, 6% ethanol, 3% propylene glycol and 1% H2 O). (Test compound solution concentrations were selected to keep injection volumes between 1 and 10 μl). Isoproterenol (0.54 to 5.4 nM) was given at the beginning of each experiment to confirm the viability and responsiveness of the tissues. Test agents were given in several graded doses in logarithmic increments. Responsiveness to isoproterenol was also assessed at the end of the experiment unless other positive drug responses were obtained near the end of the experiment. Results were expressed as percent change from control for contractile force. The EC50 value (calculated concentration required to increase the contractile force by 50% from the control level) for each tissue was obtained, where possible, by regression analysis. The mean of the EC50 values was obtained from at least three individual tissues for each compound tested. Compounds having the following chemical structure were tested for cardiotonic activity according to one or both of the above test methods: [drawing 3] Determinations of contractile force EC50 according to Test Method I and ventricular pressure ED50 according to Test Method II which have been obtained for the compounds are provided in Table I: […]

Structure (SMILES)	EC50 [µM]
Cc1ccc(-c2ccc(-c3ncc[nH]3)o2)cc1 [Example 19, 2-[5-(4-methylphenyl)-2-furanyl]-1H-imidazole hydrochloride]	3.7
Brc1ccccc1-c1ccc(-c2ncc[nH]2)o1 [Example 8, 2-[5-(2-Bromophenyl)-2-furanyl]imidazole Hydrochloride Tetartohydrate]	5.7
FC(F)(F)c1ccccc1-c1ccc(-c2ncc[nH]2)o1 [Example 11]	28.2
Clc1ccc(-c2ccc(-c3ncc[nH]3)o2)c(Cl)c1 [Example 12]	1.3
FC(F)(F)c1ccc(-c2ccc(-c3ncc[nH]3)o2)cc1 [Example 16]	3
c1ccc(-c2ccc(-c3ncc[nH]3)o2)cc1 [Example 6]	22.9
O=[N+]([O-])c1ccccc1-c1ccc(-c2ncc[nH]2)o1 [Example 5]	60
Cc1c[nH]c(-c2ccc(-c3ccc(Br)cc3)o2)n1 [Example 23, 2-[5-(4-Bromophenyl)-2-furanyl]-4-methyl-1H-imidazole Hydrochloride]	0.5
COc1ccc(-c2ccc(-c3ncc[nH]3)o2)c([N+](=O)[O-])c1 [Example 17]	8.2
Ic1ccc(-c2ccc(-c3ncc[nH]3)o2)cc1 [Example 27]	10.3
Brc1ccc(-c2ccc(-c3ncc[nH]3)o2)cc1 [Example 14]	1.3
Fc1ccccc1-c1ccc(-c2ncc[nH]2)o1 [Example 10]	7.2
Clc1ccc(-c2ccc(-c3ncc[nH]3)o2)cc1Cl [Example 13]	5.4
Cc1cc(Br)ccc1-c1ccc(-c2ncc[nH]2)o1 [Example 31, 2-[5-(4-Bromo-2-methylphenyl)-2-furanyl]-1H-imidazole Hydrochloride]	1.9
Cn1ccnc1-c1ccc(-c2ccc(Br)cc2)o1 [Example 22]	> 100
Brc1ccc(-c2ccc(-c3ncc[nH]3)o2)c(Br)c1 [Example 21]	8
COc1ccc(-c2ccc(-c3ncc[nH]3)o2)cc1 [Example 28]	28
Clc1ccc(-c2ccc(-c3ncc[nH]3)o2)cc1 [Example 2]	3.5

The remaining lines, values ahead:

EC50 [µM]	Structure (SMILES)
6.5	FC(F)(F)c1cccc(-c2ccc(-c3ncc[nH]3)o2)c1 [Example 3]
190	COc1ccc(-c2ccc(-c3ncc[nH]3)o2)cc1OC [Example 4]
3.4	COc1cc(-c2ccc(-c3ncc[nH]3)o2)ccc1Br [Example 29, 2-[5-(4-Bromo-3-methoxyphenyl)-2-furanyl]-1H-imidazole Hydrochloride]
1.5	Cc1ccc(-c2ccc(-c3ncc[nH]3)o2)c(Br)c1 [Example 25]
33.4	Fc1ccc(-c2ccc(-c3ncc[nH]3)o2)cc1 [Example 15]
> 100	Brc1cccc(Br)c1-c1ccc(-c2ncc[nH]2)o1 [Example 24]
40	CC(=O)c1ccc(-c2ccc(-c3ncc[nH]3)o2)cc1 [Example 7]
260	O=[N+]([O-])c1ccc(-c2ccc(-c3ncc[nH]3)o2)cc1 [Example 1]
21.1	Cn1ccnc1-c1ccc(-c2ccccc2Br)o1 [Example 18]
50.2	Cc1cnc(-c2ccc(-c3ccc(Br)cc3)o2)n1C [Example 33, 2-[5-(4-Bromophenyl)-2-furanyl]-1,5-dimethyl-1H-imidazole Hydrochloride]
3.7	Clc1ccccc1-c1ccc(-c2ncc[nH]2)o1 [Example 9]
4	FC(F)(F)c1cc(-c2ccc(-c3ncc[nH]3)o2)ccc1Br [Example 26]
21.2	CCn1ccnc1-c1ccc(-c2ccccc2Br)o1 [Example 30, 2-[5-(2-Bromophenyl)-2-furanyl]-1-ethyl-1H-imidazole Hydrochloride]
> 100	Cc1cn(C)c(-c2ccc(-c3ccc(Br)cc3)o2)n1 [Example 34, 2-[5-(4-Bromophenyl)-2-furanyl]-1,4-dimethyl-1H-imidazole Hydrochloride Hydrate]
1.7	Cc1c[nH]c(-c2ccc(-c3ccccc3Br)o2)n1 [Example 32, 2-[5-(2-Bromophenyl)-2-furanyl]-4-methyl-1H-imidazole Hydrochloride]
6.8	CC(C)c1ccc(-c2ccc(-c3ncc[nH]3)o2)cc1 [Example 20, 2-[5-[4-(1-Methylethyl)phenyl]-2-furanyl]-1H-imidazole Hydrochloride]

tested on: right ventricle of guinea pig; test: In vivo guinea pig ventricular pressure measurement (Test Method II); conditions: Cavia porcellus, iv; calculated dose required to increase the right ventricular pressure by 50% from the control level, anesthetized guinea pig
Experimental: An additional or alternative method for testing the cardiotonic activity of compounds of the present invention is set forth in the following reference: Beek, O. G., "A Small Animal Model for Monitoring Inotropic Responses to Cardiotonic Agents", Journal of Pharmacological Methods, Vol. 7 (1982), pp. 321-329. Right ventricular inotropic responses are measured in an anesthetized, close-chested guinea pig using a pressure-sensitive transducer inserted into the right ventricle of the heart via the right jugular vein.
In vivo guinea pig ventricular pressure measurement
Unfasted male Hartley albino guinea pigs, weighing 450-650 g (Charles River Breeding Laboratories, Inc., Wilmington, MA) were used in these studies. Under ethyl carbamate (urethane) anesthesia (1.25 g/kg i.p.), the trachea was cannulated through a mid-ventral cervical incision. The left carotid artery was cannulated with PE-50 tubing (Clay Adams Co., Parsippany, NJ) filled with 100 µg/ml heparin for blood pressure monitoring, and the left jugular vein was cannulated (catheter filled with saline) for drug administration. A 3Fr Millar Mikro-Tip ventricular pressure catheter (Millar instruments, Inc., Houston, Texas) was positioned in the right ventricle via the right jugular vein. A thoracotomy was performed and the guinea pig was respired by a rodent respirator (Model 680, Harvard Apparatus Co., Millis, MA) at a rate of 8 ml/stroke×40 strokes/minute. A modified Brodie strain gauge (Warren Research Products, Charleston, South Carolina) was sutured on the right ventricle parallel to, but avoiding, the intraventricular septum. The rectal body temperature of 37° C. was maintained by an electronic temperature controlled lamp. The animals were left undisturbed for 60 minutes before being used for an experiment.
A single i.v. bolus does of 0.3 μg/kg isoproterenol was administered followed by a 0.2 ml saline flush prior to and at the end of each experiment to check the viability and responsiveness of each animal. Usually a vehicle does in a volume equal to the single largest volume of compound to be administered was intravenously injected 20-30 minutes after the initial isoproterenol injection when parameters had returned to baseline levels. A non-cumulative dose response curve was determined for each compound using a minimum of 3 doses. Time between doses for all compounds was dependent upon the time needed for all parameters to return to baseline or stable levels. A minimum of 3 animals per dose level was tested for each compound.
Results were expressed as percent changes from pretreatment baseline for all parameters measured. The ED50 values of ventricular pressure changes (calculated dose required to increase the right ventricular pressure by 50% from the control level) of test compounds were determined by regression analysis.
Compounds having the following chemical structure were tested for cardiotonic activity according to one or both of the above test methods: [drawing 3] Determinations of contractile force EC50 according to Test Method I and ventricular pressure ED50 according to Test Method II which have been obtained for the compounds are provided in Table I: […]

Structure (SMILES)	ED50 [mg/kg]
Brc1ccccc1-c1ccc(-c2ncc[nH]2)o1 [Example 8, 2-[5-(2-Bromophenyl)-2-furanyl]imidazole Hydrochloride Tetartohydrate]	0.8
COc1ccc(-c2ccc(-c3ncc[nH]3)o2)cc1OC [Example 4]	3.16
Clc1ccc(-c2ccc(-c3ncc[nH]3)o2)c(Cl)c1 [Example 12]	2.05
c1ccc(-c2ccc(-c3ncc[nH]3)o2)cc1 [Example 6]	1.98
O=[N+]([O-])c1ccccc1-c1ccc(-c2ncc[nH]2)o1 [Example 5]	29.1
Clc1ccc(-c2ccc(-c3ncc[nH]3)o2)cc1 [Example 2]	0.31
